# PMC9749938, “Alkyltriphenylphosphonium turns naphthoquinoneimidazoles into potent membrane depolarizers against mycobacteria” (RSC Medicinal Chemistry, 2022)
# System: inverted membrane vesicles of M. smegmatis mc^24517 overexpressing NDH2 (TB-ndh)
# Assay: NADH oxidation in inverted membrane vesicles, TB-ndh
# Assay type: biochemical
# Conditions: read-out: EC50 of activation of NADH oxidation, TB-ndh IMV
row,Compound,EC50
1,Cc1nc2c(n1CCCCCCCCCCC[P+](c1ccccc1)(c1ccccc1)c1ccccc1)C(=O)c1ccccc1C2=O.[I-] [Compound 7],1400 nM
2,"CCCCn1c2c([n+](C3CCC4(CCCCC4)CC3)c1C)C(=O)c1ccccc1C2=O.[Br-] [Compound 44, reference compound]",3740 nM
3,"CCCCCCCCn1c2c([n+](CCCC)c1C)C(=O)c1ccccc1C2=O.[Br-] [Compound 45, reference compound]",200 nM
